Data published in publication PMC6362833 (ACS chemical neuroscience, 2017).
“And” between values parts separate entries of the source, which are not always exact repeats. Equal entries are not always repeated.

Tests used:
[1] = system: HEK-293T cells; assay: CytoTox-Fluor acute cytotoxicity assay; assay type: cell-based; conditions: 30 min; for effect on cell viability: up to 31.6 μM
[2] = target: CaM/AC8-Nt interaction (Homo sapiens, UniProt P0DP23); assay: Fluorescence polarization; assay type: binding; conditions: for IC50: FP; for slope of concentration-response curve: FP concentration response
[3] = target: CaM/AC8 complex (Homo sapiens, UniProt P0DP23); assay: AC8/CaM NanoBiT complementation assay in HEK-293T cells; assay type: cell-based, rat AC8; conditions: 30 min pretreatment
[4] = CytoTox-Fluor acute cytotoxicity assay; assay type: cell-based; conditions: human, HEK293T cells, pH 7.4
[5] = target: AC1 (Homo sapiens, UniProt Q08828); assay: CaM-stimulated AC1 activity in membrane preparations; assay type: biochemical
Chain of AC1 (Homo sapiens, UniProt Q08828) (Q08828 whole entry): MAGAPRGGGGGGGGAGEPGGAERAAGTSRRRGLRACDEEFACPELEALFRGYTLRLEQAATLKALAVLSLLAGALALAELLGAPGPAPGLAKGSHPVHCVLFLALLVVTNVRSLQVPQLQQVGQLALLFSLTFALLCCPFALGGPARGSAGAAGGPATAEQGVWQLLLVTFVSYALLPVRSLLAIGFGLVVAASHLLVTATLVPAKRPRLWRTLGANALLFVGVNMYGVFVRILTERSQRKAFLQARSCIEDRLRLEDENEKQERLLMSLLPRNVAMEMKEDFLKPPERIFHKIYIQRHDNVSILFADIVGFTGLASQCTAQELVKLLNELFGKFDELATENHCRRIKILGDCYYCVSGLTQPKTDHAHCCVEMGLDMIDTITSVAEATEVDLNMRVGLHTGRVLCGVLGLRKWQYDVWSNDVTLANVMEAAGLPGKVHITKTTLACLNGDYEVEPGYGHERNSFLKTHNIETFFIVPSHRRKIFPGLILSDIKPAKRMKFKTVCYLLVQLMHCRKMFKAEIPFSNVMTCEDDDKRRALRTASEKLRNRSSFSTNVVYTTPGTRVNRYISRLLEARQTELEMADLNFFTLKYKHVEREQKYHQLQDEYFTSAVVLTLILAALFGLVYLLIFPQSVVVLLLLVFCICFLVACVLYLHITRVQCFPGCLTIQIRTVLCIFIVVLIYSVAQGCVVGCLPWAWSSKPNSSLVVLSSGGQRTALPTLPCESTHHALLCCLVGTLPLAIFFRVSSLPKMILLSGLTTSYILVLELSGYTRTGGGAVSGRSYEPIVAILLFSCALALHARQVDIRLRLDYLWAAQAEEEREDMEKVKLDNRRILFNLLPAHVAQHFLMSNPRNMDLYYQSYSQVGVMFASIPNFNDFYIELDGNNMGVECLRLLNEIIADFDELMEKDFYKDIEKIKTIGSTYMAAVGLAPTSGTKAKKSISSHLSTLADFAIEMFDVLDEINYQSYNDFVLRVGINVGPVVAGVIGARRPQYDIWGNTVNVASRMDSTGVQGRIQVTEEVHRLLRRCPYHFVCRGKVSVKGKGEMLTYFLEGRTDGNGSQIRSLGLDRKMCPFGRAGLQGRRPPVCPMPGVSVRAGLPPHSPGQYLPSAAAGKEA

[6] = target: AC8 (Homo sapiens, UniProt P40145); assay: CaM-stimulated AC8 activity in membrane preparations; assay type: biochemical; conditions: for potency against AC8 compared with AC1: membrane preparations; for inhibition at 100 µM: read-out: AC8 % inhibition
Chain of AC1 (Q08828 whole entry): as above
Chain of AC8 (P40145 whole entry): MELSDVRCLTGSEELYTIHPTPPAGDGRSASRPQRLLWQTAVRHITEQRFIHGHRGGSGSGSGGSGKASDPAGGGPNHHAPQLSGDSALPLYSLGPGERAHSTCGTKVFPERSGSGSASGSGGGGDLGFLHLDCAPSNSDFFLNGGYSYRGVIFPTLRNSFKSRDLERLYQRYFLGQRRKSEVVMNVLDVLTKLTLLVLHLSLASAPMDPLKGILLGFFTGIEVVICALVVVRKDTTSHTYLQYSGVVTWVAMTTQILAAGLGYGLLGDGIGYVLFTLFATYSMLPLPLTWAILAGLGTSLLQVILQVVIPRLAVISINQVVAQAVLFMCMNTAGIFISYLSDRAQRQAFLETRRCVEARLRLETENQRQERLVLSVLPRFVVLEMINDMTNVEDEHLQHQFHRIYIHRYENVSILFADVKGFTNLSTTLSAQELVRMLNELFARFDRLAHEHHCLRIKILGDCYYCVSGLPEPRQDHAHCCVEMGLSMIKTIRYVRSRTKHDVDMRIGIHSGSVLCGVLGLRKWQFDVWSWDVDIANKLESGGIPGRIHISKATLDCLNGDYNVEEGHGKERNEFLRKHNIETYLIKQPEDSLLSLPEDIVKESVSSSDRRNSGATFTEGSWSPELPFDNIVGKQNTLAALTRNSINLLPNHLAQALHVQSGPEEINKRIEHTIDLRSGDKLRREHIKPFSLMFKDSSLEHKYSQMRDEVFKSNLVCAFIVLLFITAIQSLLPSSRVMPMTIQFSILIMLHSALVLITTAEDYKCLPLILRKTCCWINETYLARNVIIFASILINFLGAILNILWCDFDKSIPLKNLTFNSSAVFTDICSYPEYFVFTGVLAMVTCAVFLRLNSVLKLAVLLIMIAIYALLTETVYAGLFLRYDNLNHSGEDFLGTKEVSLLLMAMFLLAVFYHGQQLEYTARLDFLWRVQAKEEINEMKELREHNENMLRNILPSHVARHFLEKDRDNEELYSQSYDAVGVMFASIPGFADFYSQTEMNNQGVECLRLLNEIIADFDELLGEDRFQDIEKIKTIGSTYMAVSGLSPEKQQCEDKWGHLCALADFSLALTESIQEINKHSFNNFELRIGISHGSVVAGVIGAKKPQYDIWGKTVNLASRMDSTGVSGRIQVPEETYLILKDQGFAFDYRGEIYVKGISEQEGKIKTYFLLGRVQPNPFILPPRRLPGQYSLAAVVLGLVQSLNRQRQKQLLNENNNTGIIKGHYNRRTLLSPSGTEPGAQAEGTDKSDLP

[7] = target: CaM/AC8-C2b interaction (Homo sapiens, UniProt P0DP23); assay: Fluorescence polarization; assay type: binding; conditions: for IC50: FP; for inhibition of CaM/AC8-C2b relative to EGTA control: maximal inhibition, no detergent
[8] = target: (Homo sapiens, UniProt P0DP23); assay: CaM-stimulated AC1 activity in membrane preparations; assay type: biochemical; conditions: read-out: AC1 % inhibition
[9] = target: AC1; assay: as above; assay type: biochemical; conditions: membranes of HEK293 cells stably expressing AC1, CaM-stimulated
[10] = system: HERG potassium channel; conditions: cited from earlier work
[11] = system: L-type Ca^2+ channels; conditions: cited from earlier work
[12] = target: GST-tagged calmodulin (N-terminally 6X-His-GST-tagged human CaM, residues 1-149) (human) (UniProt P0DP23); assay: fluorescence polarisation
[13] = AC8-Nt pIC50, 0% Triton, 316 nM GST-CaM, 100 nM Cy5-AC8-Nt, no Triton X-100
[14] = AC8-Nt pIC50, 0.01% Triton, 0.01% Triton X-100
[15] = AC8-C2b pIC50, 0% Triton, 316 nM GST-CaM, 100 nM Cy5-AC8-C2b, no Triton X-100
[16] = AC8-C2b pIC50, 0.01% Triton, 0.01% Triton X-100

IC50 [2, 13] | IC50 [2, 14] [µM] | IC50 [6] [µM] | inhibition at 100 µM [6] [%] | inhibition at 100 µM [8] [%] | AC1 pIC50 [9] | Molecule | effect on cell viability [1] | also measured
– | – | – | – | – | – | CC(C)(C)CC(C)(C)c1ccc(OCCOCC[N+](C)(C)Cc2ccccc2)cc1 [benzethonium, Benzethonium chloride] | no negative effect on cell viability | –
5.37 µM | 9.12 | 38.9 | 91 ± 1 | 77 ± 6 | 4.20 ± 0.06 | CCCCCCCCCCCCCCCC[N+](C)(C)CCN(Cc1ccc(OC)cc1)c1ncccn1 [thonzonium, Thonzonium bromide] | did not adversely affect cell viability | effect of Triton X-100 on inhibition of CaM/AC8-C2b ([7]; 0.01% Triton X-100): Increased inhibition; IC50 [7, 15]: 10 µM; IC50 [7, 16]: 12.6 µM; inhibition of CaM/AC8-C2b relative to EGTA control [7]: approximately 50%; NanoBiT potency [3]: potencies similar to that observed for CDZ; potency against AC8 compared with AC1 [6]: slightly more potent against AC8 than AC1
– | – | – | – | – | – | CN1CCN(CCCN2c3ccccc3Sc3ccc(C(F)(F)F)cc32)CC1 [TFP, trifluoperazine] | without negatively affecting cell viability | –
2.14 µM | 1.41 | 4.9 | 106 ± 2 | 162 ± 10 | 5.24 ± 0.1 | CCCCC(CC)CNC(=N)NC(=N)NCCCCCCNC(=N)NC(=N)NCC(CC)CCCC (stereo not drawn) [alexidine] | – | slope of concentration-response curve [2]: −2.7 ± 0.2; IC50 [7, 15]: 5.89 µM; IC50 [7, 16]: 5.89 µM; concentration at which cell viability begins to be reduced ([1]; HEK-293T): ≥ 10 µM
14.5 µM | 15.5 | 17.4 | 104 ± 1 | 96 ± 4 | 4.55 ± 0.09 | CCCCCCCCCCCC[N+](C)(C)CCOc1ccccc1 [domiphen, Domiphen bromide] | – | viability at 30 min, 31.6 µM [4]: 99%; IC50 at HERG potassium channel [10]: single-digit nanomolar
– | – | – | – | – | – | NCCCCCCNS(=O)(=O)c1cccc2c(Cl)cccc12 [W7, N-(6-aminohexyl)-5-chloro-1-naphthalenesulfonamide] | without negatively affecting cell viability | –
16.6 µM | 33.1 | 24 | 99 ± 1 | 103 ± 4 | 4.58 ± 0.03 | CCCCCCCCOc1ccccc1C(=O)Nc1ccc(C(=O)OCC[N+](C)(CC)CC)cc1 [otilonium, otilonium bromide] | – | slope of concentration-response curve [2]: −3.5 ± 0.2; viability at 30 min, 31.6 µM [4]: 77%; IC50 at L-type Ca2+ channels [11]: single-digit micromolar
– | – | – | – | – | – | unlabeled AC8-Nt peptide (from UniProt P40145 30-54) | – | pIC50 [12]: 5.3
– | – | – | – | – | – | unlabeled AC8-C2b peptide (from UniProt P40145 1191-1214) | – | pIC50 [12]: 4.95

Molecule | IC50 [2, 13] | IC50 [2, 14] [µM] | IC50 [6] [µM] | inhibition at 100 µM [6] [%] | inhibition at 100 µM [8] [%] | AC1 pIC50 [9] | effect on cell viability [1] | also measured
CCCCCCCCCCCCCCCC[N+](C)(C)C [cetrimonium, cetrimonium bromide] | 11.5 µM | 11.5 | 22.4 | 102 ± 2 | – | – | – | NanoBiT potency [3]: potencies similar to that observed for CDZ; viability at 30 min, 31.6 µM [4]: 89%; IC50 [5]: 39.8 µM; inhibition at 100 µM ([5]; read-out: AC1 % inhibition): 86 ± 7%; potency against AC8 compared with AC1 [6]: slightly more potent against AC8 than AC1
Clc1ccc(C(c2ccc(Cl)cc2)n2cc[n+](CC(OCc3ccc(Cl)cc3Cl)c3ccc(Cl)cc3Cl)c2)cc1 (stereo not drawn) [CDZ, calmidazolium chloride] | 2.75 µM and 2.82 µM | 2.88 | 4.68 | 100 | 97 ± 3 | 4.87 ± 0.06 | appreciable cell toxicity at 31.6 μM | inhibition of CaM/AC8-Nt FP ([2]; concentration response up to 100 μM, relative to EGTA control): complete inhibition; effect of Triton X-100 on inhibition of CaM/AC8-C2b ([7]; 0.01% Triton X-100): Increased inhibition; IC50 [7, 15]: 3.16 µM; IC50 [7, 16]: 9.77 µM; inhibition of CaM/AC8-C2b relative to EGTA control [7]: approximately 50%
